One data set has as its system Alternaria brassicae. The experiment in a line: In vivo preventive test on Alternaria brassicae (leaf spot on radish or cabbage). Conditions: 144 h, 500 ppm of active ingredient, preventive spray on radish or cabbage, evaluated 6 days after inoculation, read-out: efficacy. Put shortly:
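Young radish or cabbage plants sprayed with compound dissolved in DMSO/acetone/Tween 80 and diluted in water; controls received solvent only. Leaves inoculated 24 h later by spraying an aqueous Alternaria brassicae spore suspension.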

In data set [1] the test system is Colletotrichum lindemuthianum. Kind of data set: Colletotrichum lindemuthianum in vitro cell test. In kind it is cell-based. The conditions noted are these: 144 h, 20 ppm of active ingredient, liquid culture, 6 days incubation, read-out: efficacy (inhibition of fungal growth). Here is the method: • Solvent: DMSO • Culture medium: 14.6 g anhydrous D-glucose (VWR), 7.1 g Mycological Peptone (Oxoid), 1.4 g granulated Yeast Extract (Merck), QSP 1 liter • Inoculum: spores suspension Fungicides were solubilized in DMSO and the solution used to prepare the required range of concentrations. […] A spore suspension of C. lindemuthianum was prepared and diluted to the desired spore density. Fungicides were evaluated for their ability to inhibit spores germination and mycelium growth in liquid culture assay. The compounds were added in the desired concentration to the culture medium with spores. After 6 days incubation, fungi-toxicity of compounds was determined by spectrometric measurement of mycelium growth. Inhibition of fungal growth was determined by comparing the absorbance values in wells containing the fungicides with the absorbance in control wells without fungicides.

Another data set deals with Alternaria alternata. Kind of data set: Alternaria alternata in vitro cell test. In kind it is cell-based. Conditions: 120 h, 20 ppm of active ingredient, liquid culture, 5 days incubation, read-out: efficacy (inhibition of fungal growth). Put shortly: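 A. alternata spores in glucose–peptone–yeast extract liquid medium were exposed to DMSO-solubilized compounds. Mycelial growth was measured spectrophotometrically after 5 days. Inhibition was calculated from absorbance relative to compound-free controls.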

The subject of data set [2] is Colletotrichum lindemuthianum. The experiment in a line: In vivo preventive test on Colletotrichum lindemuthianum (leaf spot on bean). The conditions noted are these: 168 h, 500 ppm of active ingredient, preventive spray on bean, evaluated 7 days after inoculation, read-out: efficacy. The method, boiled down: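 Young bean plants were sprayed with compound dissolved in DMSO/acetone/Tween 80 and diluted in water; controls received the solvent mixture alone. Leaves were spray-inoculated with C. lindemuthianum spore suspension 24 h after treatment (preventive).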

A short description of data set [3]: Measurement of LogP values by HPLC on reversed phase columns (EEC directive 79/831 Annex V.A8). Conditions: method [a]: LC-UV, acidic range, 0.1% formic acid in water and acetonitrile; compounds of formula (I-1), Table 1. In kind it is physicochemical. As to the method: Calibration was done with straight-chain alkan2-ones (with 3 to 16 carbon atoms) with known LogP values (measurement of LogP values using retention times with linear interpolation between successive alkanones). Lambda-max-values were determined using UV-spectra from 200 nm to 400 nm and the peak values of the chromatographic signals

The subject of a further data set is Pyrenophora teres. The experiment in a line: In vivo preventive test on Pyrenophora teres (net blotch on barley). The conditions noted are these: 240 h, 500 ppm of active ingredient, preventive spray on barley, evaluated 10 days after inoculation, read-out: efficacy. The method, boiled down:
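Young barley plants sprayed preventively with compound dissolved in DMSO/acetone/Tween 80 and diluted in water; controls received solvent mixture only. Leaves inoculated 24 h later by spraying an aqueous P. teres spore suspension.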

The test system of another data set is Septoria tritici. Kind of data set: Septoria tritici in vitro cell test. In kind it is cell-based. Conditions: Zymoseptoria tritici, 168 h; 20 ppm of active ingredient; liquid culture, 7 days incubation; read-out: efficacy (inhibition of fungal growth). As to the method: • Solvent: DMSO • Culture medium: 1 g KH2PO4 (VWR), 1 g K2HPO4 (VWR), 0.5 g Urea (VWR), 3 g KNO3 (Prolabo), 10 g saccharose (VWR), 0.5 g MgSO4, 7H2O (Sigma), 0.07 g CaCl2, 2H2O (Prolabo), 0.2 mg MnSO4, H2O (Sigma), 0.6 mg CuSO4, 5H2O (Sigma), 7.9 mg ZnSO4, 7H2O (Sigma), 0.1 mg H3BO3 (Merck), 0.14 mg NaMoO4, 2H2O (Sigma), 2 mg thiamine (Sigma), 0.1 mg biotine (VWR), 4 mg FeSO4, 7H2O (Sigma), QSP 1 liter • Inoculum: spore suspension Fungicides were solubilized in DMSO and the solution used to prepare the required range of concentrations. […] A spore suspension of S. tritici was prepared and diluted to the desired spore density. Fungicides were evaluated for their ability to inhibit spore germination and mycelium growth in liquid culture assay. The compounds were added in the desired concentration to the culture medium with spores. […] Inhibition of fungal growth was determined by comparing the absorbance values in wells containing the fungicides with the absorbance in control wells without fungicides.

The subject of another data set is Botrytis cinerea. The experiment in a line: In vivo preventive test on Botrytis cinerea (grey mould). The conditions noted are these: 500 ppm of active ingredient, preventive spray on gherkin or cabbage, evaluated 4 to 5 days after inoculation, read-out: efficacy. The method, boiled down:
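Young plants of gherkin or cabbage were sprayed with water-diluted compound formulated in DMSO/acetone/Tween 80, with solvent-only controls. Inoculation followed 24 h later by spraying an aqueous spore suspension of Botrytis cinerea onto leaves.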

The test system of another data set is Fusarium culmorum. Kind of data set: Fusarium culmorum in vitro cell test. In kind it is cell-based. The conditions noted are these: 96 h, 20 ppm of active ingredient, liquid culture, 4 days incubation, read-out: efficacy (inhibition of fungal growth). As to the method:
• Solvent: DMSO • Culture medium: 14.6 g anhydrous D-glucose (VWR), 7.1 g Mycological Peptone (Oxoid), 1.4 g granulated Yeast Extract (Merck), QSP 1 liter • Inoculum: spore suspension • Fungicides were solubilized in DMSO and the solution used to prepare the required range of concentrations. The final concentration of DMSO used in the assay was ≤1%.
A spore suspension of F. culmorum was prepared and diluted to the desired spore density.
Fungicides were evaluated for their ability to inhibit spore germination and mycelium growth in liquid culture assay. The compounds were added in the desired concentration to the culture medium with spores. After 4 days incubation, fungi-toxicity of compounds was determined by spectrometric measurement of mycelium growth. Inhibition of fungal growth was determined by comparing the absorbance values in wells containing the fungicides with the absorbance in control wells without fungicides.

The next data set relates to Pyricularia Oryzae. The experiment in a line: microbe, parasite or virus in culture. Conditions: 120 h, read-out: efficacy (inhibition of fungal growth). Format: cell-based.
A further data set concerns Sphaerotheca fuliginea. The experiment in a line: In vivo preventive test on Sphaerotheca fuliginea (powdery mildew on cucurbits). Conditions: Podosphaera fuliginea, 192 h; 500 ppm of active ingredient; preventive spray on gherkin; evaluated 8 days after inoculation; read-out: efficacy. The method, boiled down: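 Preventive spray on young gherkin plants with compound in DMSO/acetone/Tween 80 diluted in water; controls received solvent only. Leaves inoculated 24 h later by spraying an aqueous S. fuliginea spore suspension.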

Molecules are shown by their SMILES.

Broadly, the inhibition is the relative decrease from the control value, in per cent. For orientation: chromatographic logP means lipophilicity estimated from chromatographic retention. Read a low chromatographic logP as lower lipophilicity.

With `O=CN1C(c2cc(Cl)nnc2Oc2cccc(C3CC3)c2F)=NOCC1Cc1ccc(Cl)cc1Cl` (racemic) [Compound I-025, (5RS)-3-[6-chloro-3-(3-cyclopropyl-2-fluorophenoxy)pyridazin-4-yl]-5-(2,4-dichlorobenzyl)-5,6-dihydro-4H-1,2,4-oxadiazine-4-carbaldehyde], the pest or weed control at 500 ppm (with Alternaria brassicae; in data set [2]; in the data set with Pyrenophora teres; with Botrytis cinerea; in the data set with Sphaerotheca fuliginea) was 90 to 100% throughout. Further, the inhibition at 20 ppm (in [1]; in the data set with Alternaria alternata; in the data set on Septoria tritici; in the data set with Fusarium culmorum; with Pyricularia Oryzae) was 90 to 100% throughout. The molecule further returned a chromatographic logP in data set [3] of 4.93.
As to `Cc1ccc(CC2CON=C(c3cc(C)nnc3Oc3cccc(Cl)c3)N2)c(C)c1` (racemic) [Compound I-002, (5RS)-3-[3-(3-chlorophenoxy)-6-methylpyridazin-4-yl]-5-(2,4-dimethylbenzyl)-5,6-dihydro-4H-1,2,4-oxadiazine], the pest or weed control at 500 ppm (in the data set with Alternaria brassicae; in data set [2]; with Pyrenophora teres; in the data set with Botrytis cinerea; with Sphaerotheca fuliginea) was 90 to 100% each time. Also, the inhibition at 20 ppm (in [1]; in the data set with Alternaria alternata; in the data set on Septoria tritici; in the data set with Fusarium culmorum; in the data set with Pyricularia Oryzae) was 90 to 100% each time. Besides, in [3], the chromatographic logP came out at 3.77.
As to `Cc1ccc(CC2CON=C(c3cc(C)nnc3Oc3cccc(C)c3F)N2)c(Cl)c1` (racemic) [Compound I-003, (5RS)-5-(2-chloro-4-methylbenzyl)-3-[3-(2-fluoro-3-methylphenoxy)-6-methylpyridazin-4-yl]-5,6-dihydro-4H-1,2,4-oxadiazine], the pest or weed control at 500 ppm (in the data set on Alternaria brassicae; in [2]; with Pyrenophora teres; in the data set with Botrytis cinerea; with Sphaerotheca fuliginea) was 90 to 100% each time. For the same molecule, the inhibition at 20 ppm (in data set [1]; in the data set with Alternaria alternata; with Septoria tritici; with Fusarium culmorum; in the data set on Pyricularia Oryzae) was 90 to 100% in each case. For the same molecule, in data set [3], the chromatographic logP was found to be 3.78.
On to `Cc1ccc(C)c(CC2CON=C(c3cc(C)nnc3Oc3cccc(Cl)c3F)N2)c1` (racemic) [Compound I-012, (5RS)-3-[3-(3-chloro-2-fluorophenoxy)-6-methylpyridazin-4-yl]-5-(2,5-dimethylbenzyl)-5,6-dihydro-4H-1,2,4-oxadiazine], for which the pest or weed control at 500 ppm (with Alternaria brassicae; in [2]; with Pyrenophora teres; in the data set on Botrytis cinerea; in the data set with Sphaerotheca fuliginea) was 90 to 100% throughout. For the same molecule, the inhibition at 20 ppm (in data set [1]; in the data set on Alternaria alternata; in the data set with Septoria tritici; in the data set with Fusarium culmorum; in the data set on Pyricularia Oryzae) was 90 to 100% throughout. The molecule further gave a chromatographic logP in data set [3] of 3.8.
Turning to `Cc1cccc(Oc2nnc(Cl)cc2C2=NOCC(Cc3ccc(Cl)cc3Cl)N2)c1F` (racemic) [Compound I-005, (5RS)-3-[6-chloro-3-(2-fluoro-3-methylphenoxy)pyridazin-4-yl]-5-(2,4-dichlorobenzyl)-5,6-dihydro-4H-1,2,4-oxadiazine], the pest or weed control at 500 ppm (in the data set on Alternaria brassicae; in data set [2]; in the data set with Pyrenophora teres; with Botrytis cinerea; with Sphaerotheca fuliginea) was 90 to 100% each time. The inhibition at 20 ppm (in [1]; in the data set on Alternaria alternata; with Septoria tritici; in the data set with Fusarium culmorum; in the data set with Pyricularia Oryzae) was 90 to 100% each time. The chromatographic logP in data set [3] was found to be 4.47.
As for `Cc1ccc(CC2CON=C(c3cc(C)nnc3Oc3cccc(Cl)c3F)N2)c(Br)c1` (racemic) [Compound I-006, (5RS)-5-(2-bromo-4-methylbenzyl)-3-[3-(3-chloro-2-fluorophenoxy)-6-methylpyridazin-4-yl]-5,6-dihydro-4H-1,2,4-oxadiazine], the pest or weed control at 500 ppm (in the data set on Alternaria brassicae; in data set [2]; in the data set with Pyrenophora teres; in the data set with Botrytis cinerea; in the data set with Sphaerotheca fuliginea) was 90 to 100% in each case. Besides, the inhibition at 20 ppm (in [1]; in the data set with Alternaria alternata; in the data set with Septoria tritici; in the data set on Fusarium culmorum; in the data set with Pyricularia Oryzae) was 90 to 100% in each case. The chromatographic logP in data set [3] worked out at 4.01.
In the case of `Cc1ccc(CC2CON=C(c3cc(C)nnc3Oc3cccc(Cl)c3)N2)c(Br)c1` (racemic) [Compound I-001, (5RS)-5-(2-bromo-4-methylbenzyl)-3-[3-(3-chlorophenoxy)-6-methylpyridazin-4-yl]-5,6-dihydro-4H-1,2,4-oxadiazine], the pest or weed control at 500 ppm (in the data set with Alternaria brassicae; in [2]; in the data set with Pyrenophora teres; in the data set on Botrytis cinerea; in the data set with Sphaerotheca fuliginea) was 90 to 100% each time. Also, the inhibition at 20 ppm (in data set [1]; in the data set on Alternaria alternata; with Septoria tritici; in the data set on Fusarium culmorum; in the data set with Pyricularia Oryzae) was 90 to 100% each time. This molecule showed a chromatographic logP in data set [3] of 3.94.

These data come from patent US12543738B2 (Bayer Aktiengesellschaft, priority 2020, dated 2026).
